Values after ≈ are worked out from the molar mass of the structure shown. Like-named read-outs stand apart in the source and are kept apart here.
How the values were obtained:
[1] = tested on: Clostridium difficile ATCC 17857; assay: In vitro inhibition of Clostridium difficile (Oxyrase broth microdilution MIC); assay type: cell-based; settings: Clostridioides difficile, ATCC17857; Clostridium difficile ATCC 17857, Oxyrase broth; read-out: MIC, column D, 3(S) compounds
[2] = tested on: Mycobacterium bovis BCG (recombinant strain); assay: microbe, parasite or virus in culture; assay type: cell-based; settings: 6 days 37° C.; for MIC: Mycobacterium tuberculosis variant bovis BCG, BCG, 144 h, read-out: MIC, column A, 3(S) compounds
Cryptosporidium parvum = assay: Inhibition of Cryptosporidium parvum (ELISA, infected HCT-8 monolayers); assay type: cell-based; settings: for inhibition at 25 µg/mL / inhibition at 50 µg/mL / inhibition at 100 µg/mL / inhibition at 200 µg/mL: Cryptosporidium parvum, HCT-8, read-out: Percent Inhibition of C. parvum; for inhibition at 25 µg/mL / inhibition at 50 µg/mL / inhibition at 100 µg/mL / inhibition at 200 µg/mL / Percent Inhibition of C. parvum: 48 h
Procedure: Susceptibility testing against Cryptosporidium was performed according to published procedures (K. Woods, M. Nesterenko, S. Upton, "Development of a microtiter ELISA to quantify development of Cryptosporidium parvum in vitro," FEMS Microbiology Letters, 128:89-94 (1995).
Compounds were solubilized to a concentration of 100 mg/mL in 100% DMSO. DMSO solutions of test compounds were added to the test wells of a microplate at a volume that produced a final concentration of DMSO of 0.2%. Monolayers of human ileocecal adenocarcinoma cells (HCT-8) were prepared by growth in RPMI 1640 medium in 96-Well tissue culture trays for 24 h. Oocysts of C. parvum were allowed to excyst in 10% bleach for 10 min prior to use. Monolayers were then infected with 2-3×10^4 oocysts/well and incubated in the presence or absence of compound for 48 h at 35° C. in 5% CO2 and 95% humidity. Background consisted of wells containing killed oocysts (freeze thaw cycle following 30 sec exposure to liquid nitrogen). Growth control wells were infected with 2-3×10^4 oocysts/well in the absence of test compounds. At the end of incubation, wells were washed and fixed by adding 100 uL of 4% formalin in phosphate buffered saline (pH 7.3) per well for 2 h. After blocking with 1% bovine serum albumin, and 0.002% Tween 20, 50 uL of rat anti-Cryptosporidium membrane protein antiserum was added. After 30 min, wells were washed in PBS and 50 uL of secondary antibody (goat anti-rat antibody conjugated with horseradish peroxidase) was added. After 20-30 min, wells were washed again in PBS and 50 uL of 3,3',5,5'-tetramethylbenzidine solution was added. Plates were allowed to develop for 10-15 min and the optical density was read at 630 nm. Percent inhibition was calculated by comparing the optical density of the drug treated group to that of the untreated control.

Helicobacter pylori = assay: In vitro inhibition of Helicobacter pylori (broth microdilution MIC); settings: Helicobacter pylori
[3] = tested on: Mycobacterium bovis (rBCG-lux); assay: microbe, parasite or virus in culture; assay type: cell-based, Mycobacterium bovis bacille Calmette Guerin; settings: Mycobacterium tuberculosis variant bovis, 72 h; read-out: % of control, measured in RLUs
[4] = 72 h, read-out: MIC against Helicobacter pylori, strain 17 (Table 5A)
[5] = 72 h, read-out: MIC against Helicobacter pylori, strain 19 (Table 5A)
[6] = 72 h, read-out: MIC against Helicobacter pylori, strain 20 (Table 5A)
[7] = 72 h, read-out: MIC against Helicobacter pylori, strain 40 (Table 5A)
[8] = 72 h, read-out: MIC against Helicobacter pylori, strain 43 (Table 5A)
[9] = 72 h, read-out: MIC against Helicobacter pylori, strain 76 (Table 5A)
[10] = ATCC43504, 72 h, read-out: MIC against Helicobacter pylori, strain ATCC 43504 (Table 5A)

## O=[N+]([O-])c1cn2c(n1)OC[C@@H](OCc1ccc(F)cc1)C2 [PA-655]
[1]
  MIC: 6.25 µg/mL (≈ 21.3 µM)
[2]
  MIC: > 5 µg/mL

## COc1ccc(CO[C@@H]2COc3nc([N+](=O)[O-])cn3C2)cc1 [PA-736]
Cryptosporidium parvum; 25 μg/mL
  inhibition at 25 µg/mL: -3.2%
Cryptosporidium parvum; 50 μg/mL
  inhibition at 50 µg/mL: 3%
Cryptosporidium parvum; 100 μg/mL
  inhibition at 100 µg/mL: 45%
Cryptosporidium parvum; 200 μg/mL
  inhibition at 200 µg/mL: 97.7%
[2]
  MIC: 8 µg/mL (≈ 26.2 µM)

## O=[N+]([O-])c1cn2c(n1)OC[C@@H](OCc1cccc(OCc3ccccc3)c1)C2 [PA-820]
[1]
  MIC: 3.12 µg/mL (≈ 8.18 µM)
[2]
  MIC: < 5 µg/mL

## O=[N+]([O-])c1cn2c(n1)OC[C@@H](OCc1ccc(Oc3ccccc3)cc1)C2 [PA-1122]
Cryptosporidium parvum; 25 μg/mL
  inhibition at 25 µg/mL: -1.8%
Cryptosporidium parvum; 50 μg/mL
  inhibition at 50 µg/mL: 17.8%
Cryptosporidium parvum; 100 μg/mL
  inhibition at 100 µg/mL: 61%
Cryptosporidium parvum; 200 μg/mL
  inhibition at 200 µg/mL: 83.5%
[2]
  MIC: 0.06 µg/mL (≈ 0.163 µM)

## O=C(N[C@@H]1COc2nc([N+](=O)[O-])cn2C1)c1ccc(OCc2ccccc2)cc1 [PA-1125]
Helicobacter pylori; [4]
  MIC: > 25 µg/mL
Helicobacter pylori; [5]
  MIC: 0.8 µg/mL (≈ 2.03 µM)
Helicobacter pylori; [6]
  MIC: 0.8 µg/mL (≈ 2.03 µM)
Helicobacter pylori; [7]
  MIC: 1.5 µg/mL (≈ 3.8 µM)
Helicobacter pylori; [8]
  MIC: 1.5 µg/mL (≈ 3.8 µM)
Helicobacter pylori; [9]
  MIC: > 25 µg/mL
Helicobacter pylori; [10]
  MIC: > 25 µg/mL
[1]
  MIC: 1.5 µg/mL (≈ 3.8 µM)
[2]
  MIC: 0.06 µg/mL (≈ 0.152 µM)

## CCCCCCCCc1ccc(CO[C@@H]2COc3nc([N+](=O)[O-])cn3C2)cc1 [PA-1142]
Helicobacter pylori; [4]
  MIC: > 25 µg/mL
Helicobacter pylori; [5]
  MIC: 0.4 µg/mL (≈ 1.03 µM)
Helicobacter pylori; [6]
  MIC: 0.8 µg/mL (≈ 2.06 µM)
Helicobacter pylori; [7]
  MIC: 1.5 µg/mL (≈ 3.87 µM)
Helicobacter pylori; [8]
  MIC: 0.4 µg/mL (≈ 1.03 µM)
Helicobacter pylori; [9]
  MIC: 3.12 µg/mL (≈ 8.05 µM)
Helicobacter pylori; [10]
  MIC: > 25 µg/mL
[1]
  MIC: 1.5 µg/mL (≈ 3.87 µM)
[2]
  MIC: 0.06 µg/mL (≈ 0.155 µM)

## O=C(N[C@@H]1COc2nc([N+](=O)[O-])cn2C1)c1ccc(OC(F)(F)F)cc1 [PA-1150]
Cryptosporidium parvum; 25 μg/mL
  inhibition at 25 µg/mL: 4.8%
Cryptosporidium parvum; 50 μg/mL
  inhibition at 50 µg/mL: 1.7%
Cryptosporidium parvum; 100 μg/mL
  inhibition at 100 µg/mL: 30%
Cryptosporidium parvum; 200 μg/mL
  inhibition at 200 µg/mL: 96.2%
[2]
  MIC: 0.5 µg/mL (≈ 1.34 µM)

## COC(C(=O)N[C@@H]1COc2nc([N+](=O)[O-])cn2C1)(c1ccccc1)C(F)(F)F (stereo partly drawn) [PA-1170]
Cryptosporidium parvum; 25 μg/mL
  Percent Inhibition of C. parvum: -3%
Cryptosporidium parvum; 50 μg/mL
  Percent Inhibition of C. parvum: -6%
Cryptosporidium parvum; 100 μg/mL
  Percent Inhibition of C. parvum: 16%
Cryptosporidium parvum; 200 μg/mL
  Percent Inhibition of C. parvum: -3.6%
[2]
  MIC, column A, 3(S) compounds: 0.13

## O=C(Nc1ccc(Cl)cc1)N[C@@H]1COc2nc([N+](=O)[O-])cn2C1 [PA-1282, 4-Chlorophenyl Urea of 3S 3-Amino-6-nitro-3,4-dihydro-[2-1b]imidazopyran]
[2]
  MIC: ≤ 0.002 µg/mL

## O=C(Nc1ccc(OC(F)(F)F)cc1)N[C@@H]1COc2nc([N+](=O)[O-])cn2C1 [PA-1298]
Cryptosporidium parvum; 200 μg/mL, HCT-8 monolayers
  Toxic (given in place of percent inhibition): Toxic
Cryptosporidium parvum; 25 μg/mL
  inhibition at 25 µg/mL: 11.9%
Cryptosporidium parvum; 50 μg/mL
  inhibition at 50 µg/mL: 30%
Cryptosporidium parvum; 100 μg/mL
  inhibition at 100 µg/mL: 85%
[2]
  MIC: 0.015 µg/mL (≈ 0.0387 µM)

## [H]/N=C(/N)N[C@H]1[C@H](O)[C@@H](O)[C@H](O[C@@H]2O[C@@H](C)[C@](O)(C=O)[C@H]2O[C@@H]2O[C@@H](CO)[C@H](O)[C@@H](O)[C@@H]2NC)[C@@H](N/C(N)=N\[H])[C@@H]1O [Streptomycin]
[3]
  activity at 0.15 µg/mL: 63.5%
  activity at 0.31 µg/mL: 39.8%
  activity at 0.62 µg/mL: 19.6%
  activity at 1.25 µg/mL: 11.7%
  activity at 2.5 µg/mL: 8%
  activity at 5 µg/mL: 4.4%
